Kd data for one compound are collected here from paper PMC7116157 (Nature chemical biology, 2019).

Each structure is given as a SMILES string.

The target in this test is T1, Cleavage and Polyadenylation Specificity Factor 3 (CPSF3) (Homo sapiens, UniProt Q9UKF6).
T1 sequence (Q9UKF6 1-459): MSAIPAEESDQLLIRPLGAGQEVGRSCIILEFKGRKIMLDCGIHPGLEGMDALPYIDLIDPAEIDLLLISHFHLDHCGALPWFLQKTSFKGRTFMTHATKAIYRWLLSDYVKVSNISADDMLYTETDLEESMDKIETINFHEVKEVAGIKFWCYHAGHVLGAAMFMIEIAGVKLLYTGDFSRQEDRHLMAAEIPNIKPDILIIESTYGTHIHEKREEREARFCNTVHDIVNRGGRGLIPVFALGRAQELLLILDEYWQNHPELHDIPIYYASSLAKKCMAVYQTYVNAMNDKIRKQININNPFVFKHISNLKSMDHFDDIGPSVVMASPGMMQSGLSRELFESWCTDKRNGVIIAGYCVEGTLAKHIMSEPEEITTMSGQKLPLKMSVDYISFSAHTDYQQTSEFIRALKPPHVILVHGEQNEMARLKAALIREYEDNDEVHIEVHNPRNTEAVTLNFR
Nature of the test: […] Å co-crystal structure. Format: binding.

In turn, `CN1CCN(CCOc2c(Cl)cc(C(=O)N[C@@H](Cc3ccccc3)C(=O)O)c(O)c2Cl)CC1` [compound 2] yielded a Kd of 370 nM.

As usually defined, the Kd is the constant that tells how readily two partners part at equilibrium. A higher Kd goes with weaker binding.
